Here are results for 4 compounds from ChEMBL document CHEMBL3758098, “3-(Dipropylamino)-5-hydroxybenzofuro[2,3-f]quinazolin-1(2H)-one (DPA-HBFQ-1) plays an inhibitory role on breast cancer cell growth and progression” (Eur J Med Chem, 2016).

The subject of one series is MCF7. The series can be described thus: Cytotoxicity against human MCF7 cells assessed as growth inhibition at 1 uM after 5 days by MTT assay relative to vehicle-treated control. It counts as functional. The conditions noted are these: MCF7, 120 h, read-out: GI.
A further series deals with MDA-MB-231. The series can be described thus: Cytotoxicity against human MDA-MB-231 cells assessed as growth inhibition at 1 uM after 5 days by MTT assay relative to vehicle-treated control. It counts as functional. In general terms: Tetrazolium dyes change colour on reduction, which living cells bring about.
Series [1] can be described thus: Cytotoxicity against human MCF10A cells assessed as growth inhibition at 1 uM after 5 days by MTT assay relative to vehicle-treated control. It counts as cell-based. Conditions: mcf-10a, 120 h.

Calls of active or inactive are those of the source. The rule behind the calls is not given here.

Take `CCCCN(CCCC)c1nc2ccc3c4ccccc4oc3c2c(=O)[nH]1`: the inhibition of growth at 1 µM in the series with MCF7 was 15%. Moreover, the “growth inhibition (GI)” value in the series on MDA-MB-231 is “Active”. Besides, in series [1], the Activity entry was “Non-toxic”.
As for `CCN(CC)c1nc2ccc3c4ccccc4oc3c2c(=O)[nH]1`, the inhibition of growth at 1 µM with MCF7 came out at 10%. In the series on MDA-MB-231, the “growth inhibition (GI)” value is “Active”. Further, the Activity entry in series [1] is “Non-toxic”.
For `CCCN(CCC)c1nc2ccc3c4ccccc4oc3c2c(=O)[nH]1` the same measures were 25%, “Active” and “Non-toxic”.
With `CCCN(CCC)c1nc2c(OC)cc3c4ccccc4oc3c2c(=O)[nH]1`, the inhibition of growth at 1 µM in the series with MCF7 was determined as 37%. In addition, in the series on MDA-MB-231, the “growth inhibition (GI)” value was “Active”. In addition, the Activity entry in series [1] is “Non-toxic”.
